# Reference: US20210115040A1, “OGA INHIBITOR COMPOUNDS” (Janssen Pharmaceutica NV, priority 2018, published 2021)
# Target: T1, recombinant human Meningioma Expressed Antigen 5 (MGEA5), also referred to as O-GlcNAcase (OGA) (Homo sapiens, UniProt O60502)
# T1 construct: Full length OGA enzyme was purchased at OriGene (cat #TP322411); purchased OriGene TP322411
# T1 sequence (O60502 1-916): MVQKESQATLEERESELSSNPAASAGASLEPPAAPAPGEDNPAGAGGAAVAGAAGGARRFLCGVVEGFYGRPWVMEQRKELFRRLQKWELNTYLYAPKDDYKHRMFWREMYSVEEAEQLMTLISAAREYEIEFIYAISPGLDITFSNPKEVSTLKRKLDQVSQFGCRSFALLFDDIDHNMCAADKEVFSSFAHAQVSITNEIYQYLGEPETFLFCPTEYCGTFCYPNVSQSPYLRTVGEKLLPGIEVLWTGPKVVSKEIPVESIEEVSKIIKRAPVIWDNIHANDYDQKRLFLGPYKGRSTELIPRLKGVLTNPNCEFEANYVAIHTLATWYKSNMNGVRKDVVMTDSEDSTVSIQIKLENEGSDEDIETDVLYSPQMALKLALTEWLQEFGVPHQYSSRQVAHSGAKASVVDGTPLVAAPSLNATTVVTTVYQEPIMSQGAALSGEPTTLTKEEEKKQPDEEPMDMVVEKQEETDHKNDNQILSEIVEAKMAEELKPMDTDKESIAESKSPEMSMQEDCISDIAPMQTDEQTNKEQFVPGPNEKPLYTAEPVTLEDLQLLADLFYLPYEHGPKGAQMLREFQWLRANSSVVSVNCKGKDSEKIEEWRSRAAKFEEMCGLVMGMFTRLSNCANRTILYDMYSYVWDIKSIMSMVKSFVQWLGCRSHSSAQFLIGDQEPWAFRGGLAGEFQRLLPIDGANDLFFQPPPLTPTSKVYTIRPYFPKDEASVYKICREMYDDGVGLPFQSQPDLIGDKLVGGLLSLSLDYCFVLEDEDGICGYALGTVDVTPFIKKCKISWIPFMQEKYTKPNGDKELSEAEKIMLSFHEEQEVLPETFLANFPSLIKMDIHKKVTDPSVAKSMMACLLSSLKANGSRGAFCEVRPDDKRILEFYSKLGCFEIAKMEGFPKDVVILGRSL
# Experiment: OGA biochemical assay (inhibition of FM-GlcNAc hydrolysis, fluorescence)
# Details: FM-GlcNAc substrate; for IC50: 6 h at room temperature, read-out: Enzymatic hOGA, pIC50 (converted); for Emax: read-out: Enzymatic Emax (%)
# Excerpt: The assay is based on the inhibition of the hydrolysis of fluorescein mono-β-D-N-Acetyl-Glucosamine (FM-GlcNAc) (Mariappa et al. 2015, Biochem J 470:255) by the recombinant human Meningioma Expressed Antigen 5 (MGEA5), also referred to as O-GlcNAcase (OGA). The hydrolysis FM-GlcNAc (Marker Gene technologies, cat #M1485) results in the formation of β-D-N-glucosamineacetate and fluorescein. The fluorescence of the latter can be measured at excitation wavelength 485 nm and emission wavelength 538 nm. An increase in enzyme activity results in an increase in fluorescence signal. Full length OGA enzyme was purchased at OriGene (cat #TP322411). The enzyme was stored in 25 mM Tris.HCl, pH 7.3, 100 mM glycine, 10% glycerol at −20° C. Thiamet G and GlcNAcStatin were tested as reference compounds (Yuzwa et al. 2008 Nature Chemical Biology 4:483; Yuzwa et al. 2012 Nature Chemical Biology 8:393). The assay was performed in 200 mM Citrate/phosphate buffer supplemented with 0.005% Tween-20. 35.6 g Na2HPO4 2H2O (Sigma, #C0759) were dissolved in 1 L water to obtain a 200 mM solution. 19.2 g citric acid (Merck, #1.06580) was dissolved in 1 L water to obtain a 100 mM solution. pH of the sodiumphosphate solution was adjusted with the citric acid solution to 7.2. The buffer to stop the reaction consists of a 500 mM Carbonate buffer, pH 11.0. 734 mg FM-GlcNAc were dissolved in 5.48 mL DMSO to obtain a 250 mM solution and was stored at −20° C. OGA was used at a 2 nM concentration and FM-GlcNAc at a 100 uM final concentration. Dilutions were prepared in assay buffer.
# 50 nl of a compound dissolved in DMSO was dispensed on Black Proxiplate™ 384 Plus Assay plates (Perkin Elmer, #6008269) and 3 μl fl-OGA enzyme mix added subsequently. Plates were pre-incubated for 60 min at room temperature and then 2 μl FM-GlcNAc substrate mix added. […] Plates were briefly centrifuged for 1 min at 1000 rpm and incubate at room temperature for 6 h. To stop the reaction 5 μl STOP buffer were added and plates centrifuge again 1 min at 1000 rpm. Fluorescence was quantified in the Thermo Scientific Fluoroskan Ascent or the PerkinElmer EnVision with excitation wavelength 485 nm and emission wavelength 538 nm.
# For analysis a best-fit curve is fitted by a minimum sum of squares method. From this an IC50 value and Hill coefficient was obtained. High control (no inhibitor) and low control (saturating concentrations of standard inhibitor) were used to define the minimum and maximum values.
compound,measurement,setting,value
COc1cc(O[C@@H]2CCN(C(C)c3ccc4oc(C)nc4n3)C2)cc(C)n1 (mixture of isomers) [Compound 21ab],IC50,,251 nM
same,Emax,maximal effect,97%
Cc1cc(C[C@H]2CCCN(C(C)c3ccc4occc4n3)C2)cc(C)n1 (mixture of isomers) [Compound 38],IC50,,126 nM
same,Emax,maximal effect,100%
Cc1cc(OC[C@@H]2CCCN(C(C)c3ccc4sc(C)nc4n3)C2)cc(C)n1 (mixture of isomers) [Compound 45ab],IC50,,316 nM
same,Emax,maximal effect,98%
Cc1cc(C[C@@H]2CCN(C(C)c3cnc4[nH]c(C)nc4c3)C2)cc(C)n1 (mixture of isomers) [Compound 7],IC50,,50.1 nM
same,Emax,maximal effect,100%
Cc1cc(C[C@@H]2CCN(C(C)c3ccc4oc(C)nc4n3)C2)cc(C)n1 (mixture of isomers) [Compound 26],IC50,,39.8 nM
same,Emax,maximal effect,101%
COc1cc(C[C@@H]2CCN(C(C)c3ccc4oc(C)nc4n3)C2)cc(C)n1 (mixture of isomers) [Compound 28],IC50,,100 nM
same,Emax,maximal effect,99%
Cc1cc(C[C@H]2CCN(C(C)c3ccc4oc(C)nc4n3)C2)cc(C(F)(F)F)n1 (mixture of isomers) [Compound 29],IC50,,126 nM
same,Emax,maximal effect,103%
Cc1cc(C2CCCN(C(C)c3cc4nc(C)oc4cc3F)C2)cc(C)n1 (racemic) [Compound 32],IC50,,7.94 nM
same,Emax,maximal effect,99%
Cc1cc(C[C@@H]2CCN(C(C)c3cc4nc(C)oc4cc3F)C2)cc(C)n1 (mixture of isomers) [Compound 33ab],IC50,,20 nM
same,Emax,maximal effect,99%
Cc1cc(OC[C@H]2CCCN(C(C)c3cc4nc(C)oc4cc3F)C2)cc(C)n1 (mixture of isomers) [Compound 34],IC50,,10 nM
same,Emax,maximal effect,101%
Cc1cc(OC[C@@H]2CCCN(C(C)c3cc4nc(C)oc4cc3F)C2)cc(C)n1 (mixture of isomers) [Compound 35],IC50,,100 nM
same,Emax,maximal effect,101%
COc1cc(C[C@@H]2CCN(C(C)c3ccc4sc(C)nc4n3)C2)cc(C)n1 (mixture of isomers) [Compound 44],IC50,,126 nM
same,Emax,maximal effect,99%
Cc1cc(C[C@H]2CCCN([C@@H](C)c3ccc4cn(C)nc4n3)C2)cc(C)n1 (relative stereo) [Compound 12a],IC50,,1580 nM
same,Emax,maximal effect,88%
Cc1cc(C[C@H]2CCCN([C@H](C)c3ccc4cn(C)nc4n3)C2)cc(C)n1 (relative stereo) [Compound 12b],IC50,,15.8 nM
same,Emax,maximal effect,100%
COc1cc(C[C@H]2CCCN([C@@H](C)c3ccc4oc(C)nc4n3)C2)cc(C)n1 (relative stereo) [Compound 23b],IC50,,200 nM
same,Emax,maximal effect,101%
Cc1cc(C[C@@H]2CCN([C@H](C)c3cc4nc(C)oc4cc3F)C2)cc(C)n1 (relative stereo) [Compound 33a],IC50,,2.51 nM
same,Emax,maximal effect,100%
Cc1cc(C[C@@H]2CCN([C@@H](C)c3cc4nc(C)oc4cc3F)C2)cc(C)n1 (relative stereo) [Compound 33b],IC50,,63.1 nM
same,Emax,maximal effect,101%
"Cc1cc(C[C@H]2CCCN(C(C)c3cnc4[nH]c(C)nc4c3)C2)cc(C)n1 (single isomer, unassigned) [Compound 6b]",IC50,,7.94 nM
same,Enzymatic Emax (%),maximal effect,100%
"Cc1cc(C[C@H]2CCCN(C(C)c3ccc4sc(C)nc4n3)C2)cc(C)n1 (single isomer, unassigned) [Compound 42a]",IC50,,501 nM
same,Emax,maximal effect,98%
"Cc1cc(C[C@H]2CCN(C(C)c3ccc4nc(C)sc4c3)C2)cc(C)n1 (single isomer, unassigned) [Compound 57]",IC50,,> 10000 nM
same,Emax,maximal effect,28%
Cc1cc(C2CCCN(C(C)c3cnc4[nH]c(C)nc4c3)C2)cc(C)n1 (stereo not shown) [Compound 1],IC50,,316 nM
same,Emax,maximal effect,98%
COc1cc(C2CCCN(C(C)c3cnc4[nH]c(C)nc4c3)C2)cc(C)n1 (stereo not shown) [Compound 2],IC50,,200 nM
same,Emax,maximal effect,97%
Cc1cc(C2CCCN(C(C)c3cnc4[nH]c(C)nc4c3)C2)cc(C(F)(F)F)n1 (stereo not shown) [Compound 3],IC50,,316 nM
same,Emax,maximal effect,96%
COc1cc([C@H]2CCCN([C@H](C)c3cnc4[nH]c(C)nc4c3)C2)cc(C(F)(F)F)n1 [Compound 4a],Emax,maximal effect,50%
COc1cc([C@H]2CCCN([C@@H](C)c3cnc4[nH]c(C)nc4c3)C2)cc(C(F)(F)F)n1 [Compound 4b],IC50,,501 nM
same,Emax,maximal effect,96%
Cc1cc(OC2CCCN(C(C)c3ccc4[nH]c(C)nc4n3)C2)cc(C(F)(F)F)n1 (stereo not shown) [Compound 5],IC50,,794 nM
same,Emax,maximal effect,94%
Cc1cc(C[C@H]2CCCN(Cc3ccc4[nH]c(C)nc4c3)C2)cc(C)n1 [Compound 10],IC50,,1000 nM
same,Emax,maximal effect,89%
Cc1cc(C[C@H]2CCCN(Cc3ccc4cn(C)nc4c3)C2)cc(C)n1 [Compound 17],IC50,,794 nM
same,Emax,maximal effect,90%
COc1cc(O[C@@H]2CCN([C@@H](C)c3ccc4oc(C)nc4n3)C2)cc(C)n1 [Compound 21a],IC50,,> 10000 nM
same,Emax,maximal effect,22%
Cc1cc(C[C@H]2CCCN([C@@H](C)c3ccc4oc(C)nc4n3)C2)cc(C(F)(F)F)n1 [Compound 24b],IC50,,5010 nM
same,Emax,maximal effect,69%
Cc1cc(C[C@H]2CCN([C@@H](C)c3ccc4oc(C)nc4n3)C2)cc(C)n1 [Compound 27a],IC50,,200 nM
same,Emax,maximal effect,99%
Cc1cc(C[C@H]2CCN([C@H](C)c3ccc4oc(C)nc4n3)C2)cc(C)n1 [Compound 27b],IC50,,> 10000 nM
same,Emax,maximal effect,47%
Cc1cc(C[C@H]2CCCN(Cc3ccc4oc(C)nc4n3)C2)cc(C)n1 [Compound 36],IC50,,63.1 nM
same,Emax,maximal effect,101%
COc1cc(OC2CCCN(C(C)c3ccc4sc(C)nc4n3)C2)cc(C)n1 (stereo not shown) [Compound 41],IC50,,126 nM
same,Emax,maximal effect,101%
Cc1cc(OC[C@@H]2CCCN([C@H](C)c3ccc4sc(C)nc4n3)C2)cc(C)n1 [Compound 45a],IC50,,501 nM
same,Emax,maximal effect,95%
Cc1cc(OC[C@H]2CCCN([C@@H](C)c3ccc4sc(C)nc4n3)C2)cc(C)n1 [Compound 46a],IC50,,631 nM
same,Emax,maximal effect,96%
Cc1cc(C[C@H]2CCCN(Cc3ccc4nc(C)sc4c3)C2)cc(C)n1 [Compound 53],IC50,,3980 nM
same,Emax,maximal effect,77%
Cc1cc(C[C@H]2CCN(Cc3ccc4nc(C)sc4c3)C2)cc(C)n1 [Compound 55],IC50,,> 10000 nM
same,Emax,maximal effect,18%
Cc1cc(C[C@H]2CCN(C(C)c3ccc4nc(C)sc4c3)C2)cc(C)n1 (stereo partly shown) [Compound 56],IC50,,> 10000 nM
same,Emax,maximal effect,41%
Cc1nc2nc(C(C)N3CC[C@H](Cc4cc(F)cc(F)n4)C3)ccc2o1 (stereo partly shown) [Compound 79],IC50,,158 nM
same,Emax,maximal effect,99%
